Measurements published in US10869929B2, “Phosphonate linkers and their use to facilitate cellular retention of compounds” (priority 2016, dated 2020).

Assays:
glucocorticoid receptor = glucocorticoid receptor (Homo sapiens (Human), UniProt P04150); test: PolarScreen Glucocorticoid Receptor Competitor Assay (GR binding); conditions: fluormone GS red, GR full length protein; read-out: GR Bind IC50
Experimental: The potency of binding to glucocorticoid receptor by small molecule compounds was measured with the PolarScreen™ Glucocorticoid Receptor Competitor Assay Kit, Red (Life Technology, Catalog #A15898) according to the procedure in the kit. In brief, after compounds were diluted and transferred into assay plates, the fluormone GS red and GR full length protein were subsequently added into the assay plates, along with the positive and negative controls. The samples were mixed on a shaker for 1 minute and then the plates were incubated at room temperature for 2-4 hours with minimal light exposure. The plates were read with an Envision and the relative fluorescent signals were calculated. The data were plotted in GraphPad Prism and the EC50 values were calculated with non-linear regression curve fit of the data in GraphPad Prism.

GILZ gene = GILZ gene assay (qPCR, HUT78 / 786-O cells); type: cell-based; conditions: for EC50: read-out: GILZ EC50
Experimental: GILZ gene assays were conducted as follows. HUT78 cells were cultured in IMEM plus 20% heat inactivated FBS and cell density was maintained between 0.1 to 1.2 million/mL. 786-O cells were cultured in RPMI plus 10% heat inactivated FBS. Actively growing cells were harvested and resuspended in HBSS with 2% FBS at 1.1 million cells per mL then dispensed to 384-well V-bottom plates at 45 μL per well. Serially diluted ADC solution was added to the cell plate (5 μL per well) and mixed for 2 min. Cells were then cultured at 37° C., at 5% CO2 for a designated time before supernatant was removed. Cells were harvested in lysis buffer from the Cells-to-Ct kit (40 μL, Life Technologies, 4391851C) following the supplier's protocol and mixed for 10 min followed by addition of 5 μL per well of stop solution from the kit. cDNA was synthesized with a reverse transcription kit (Life Technologies, 4391852C) follow by qPCR using the TaqMan gene expression master mix (Life Technologies, 4369016) with GILZ gene assay (Life Technologies, Hs00608272_m1) and GAPDH assay (Hs2758991_g1) in a duplex format with 3-4 technical replicates.

MDCKII cells = test: Apparent permeability in MDCKII cells; type: in vitro ADME; conditions: 1 μM, t=3 hr, average of A to B and B to A Papp
Experimental: Determination of apparent permeability was as follows. MDCKII cells (kindly provided by the Netherlands Cancer Institute, under a licensing agreement) were seeded on to 96-well transwell culture plates (Millipore Corp, Billerica, Mass.) and used in experiments after five days in culture. […] Substrate solution (150 μL) was added to either the apical (A) or the basolateral (B) compartment of the culture plate, and buffer (150 μL; HBSS, 10 mM HEPES, pH 7.4) with 10 μM cyclosporine A was added to the compartment opposite to that containing the substrate. At t=3 hr, 50 μL samples were removed from both sides of monolayers dosed with test compound and placed in 96 well plates, 50 μL internal standard (1 μM labetolol) and 100 μL HBSS was added to the samples. Samples were analyzed by LC/MS/MS using an Applied Biosystems SCIEX API 5000 triple quadruple mass spectrometer (Concord, ON, Canada) with a TurbolonSpray ion source in the positive ion mode. A Thermo Scientific Transcend LX-2 system (Franklin, Mass.) was coupled to the API 5000 with a flow rate of 800 μL/min to direct sample into the mass spectrometer.
Papp was expressed as 10^−6 cm/s.

ZBTB16 mRNA = test: Up-regulation of ZBTB16 mRNA in primary human B cells; type: cell-based; conditions: for EC50: free payload
Experimental: The carrier solution for all ADCs and naked antibodies was 50 mM histidine pH 6.0, 100 mM NaCl and 5% trehelose. To assure consistency across experiments, ADCs were thawed on ice, dispensed to small aliquots, frozen to −80° C., and those aliquots were then used for experiments with unused material discarded at the end of the day. For all in vitro studies in this report, none of the read outs were measurably different in the presence or absence of the carrier solution. Nevertheless, the final concentration of antibody carrier solution was maintained constant at 1% v/v by serially diluting antibody solution prior to addition to the assay mixture and adding carrier solution to control wells.
For the studies of ADCs bearing reduced permeability payloads frozen human CD19+ B cells purchased from Precision Biosciences (catalog #84400, donor #13108) were thawed and re-suspended in RPMI1640 plus 10% heat-inactivated FBS (cell culture medium) at 1 million cells/mL. […] B cells were bulk treated in a 96-well block and subsequently dispensed to 96 well plates (100 μL and […] cells per well) and incubated at 37° C., 5% CO2 for 18 or 40 hr. Control wells containing equal percentages of DMSO (0.1%) and ADC buffer (1%) as sample wells were included. Cells were transferred to a 96 well v-bottom plate and spun at 500×g for 5 min. Medium was removed and cells were lysed in 150 μL RLT buffer containing beta-mercaptoethanol. RNA was isolated (RNeasy 96 kit, Qiagen, Cat #74181) and cDNA was synthesized (iScript cDNA Synthesis Kit, BioRad, Cat #170-8891) according to the supplier's protocol. Quantitative PCR was performed on Applied Biosystem's 7900 HT Real-Time PCR System to measure expression of ZBTB16 (Life Technologies, Hs00957433_m1) and GAPDH (Life Technologies, Hs02758991_g1) in duplex format.
The ΔΔCt method was used to calculate fold change of expression of ZBTB16 relative to control sample, using 3 replicates per treatment condition. For free cell impermeable compounds, B cells were seeded at 100,000 cells/well in 90 μL in a 96-well flat bottom plate. Three fold serial dilutions were performed in DMSO, subsequent intermediate 10× stocks were made in tissue-culture medium and then added to the cell plate (10 μL/well). Cells were incubated at 37° C., 5% CO2 for 18 hr, harvested and processed for PCR as described above. EC50 curves were calculated using Graph Pad Prism 6 software using nonlinear fit (agonist) vs. response-variable slope (four parameters) calculation.
Potency and maximum activity of reduced permeability glucocorticoids (free payload) and the corresponding anti-CD74-drug conjugates on up-regulation of ZBTB16 mRNA levels in primary human B cells in vitro.

Chain of glucocorticoid receptor (P04150 whole entry): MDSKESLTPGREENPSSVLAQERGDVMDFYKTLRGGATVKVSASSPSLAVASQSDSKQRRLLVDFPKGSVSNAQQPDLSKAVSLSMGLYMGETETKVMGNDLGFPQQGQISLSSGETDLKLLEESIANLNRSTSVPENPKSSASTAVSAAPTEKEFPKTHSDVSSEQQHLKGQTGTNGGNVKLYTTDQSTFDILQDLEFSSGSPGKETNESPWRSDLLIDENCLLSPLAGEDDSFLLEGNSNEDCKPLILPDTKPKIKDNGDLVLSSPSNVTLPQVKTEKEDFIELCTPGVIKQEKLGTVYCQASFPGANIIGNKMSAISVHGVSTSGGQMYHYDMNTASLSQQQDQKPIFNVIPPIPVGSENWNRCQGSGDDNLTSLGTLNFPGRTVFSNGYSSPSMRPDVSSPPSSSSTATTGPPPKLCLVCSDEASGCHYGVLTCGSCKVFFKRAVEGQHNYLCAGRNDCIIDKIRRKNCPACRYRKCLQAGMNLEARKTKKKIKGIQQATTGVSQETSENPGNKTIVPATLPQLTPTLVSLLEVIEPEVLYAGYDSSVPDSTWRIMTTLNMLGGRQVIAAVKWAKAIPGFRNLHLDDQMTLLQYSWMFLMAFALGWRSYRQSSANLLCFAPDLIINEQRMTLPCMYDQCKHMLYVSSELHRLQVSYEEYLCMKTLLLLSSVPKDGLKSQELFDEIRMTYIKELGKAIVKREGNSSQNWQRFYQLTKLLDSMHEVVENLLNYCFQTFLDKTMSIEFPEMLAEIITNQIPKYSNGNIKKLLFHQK

| SMILES | IC50 (glucocorticoid receptor) [nM] | GILZ Max (GILZ gene; at 10 uM) | EC50 (GILZ gene) [nM] | MDCK Permeability (cm × 10−6/sec) (MDCKII cells) | ZBTB16 mRNA Max relative to free fluticasone (ZBTB16 mRNA) [%] | EC50 (ZBTB16 mRNA; B-cell) [nM] | GILZ Max (GILZ gene; concentration not given) [%] | EC50 (ZBTB16 mRNA) [nM] |
| --- | --- | --- | --- | --- | --- | --- | --- | --- |
| C[C@@H]1C[C@H]2[C@@H]3C[C@H](F)C4=CC(=O)C=C[C@]4(C)[C@@]3(F)[C@@H](O)C[C@]2(C)[C@@]1(OC(=O)CCCCCCCCP(=O)(O)O)C(=O)SCF [Compound 18, (9-(((6S,8S,9R,10S,11S,13S,14S,16R,17R)-6,9-difluoro-17-(((fluoromethyl)thio)carbonyl)-11-hydroxy-10,13,16-trimethyl-3-oxo-6,7,8,9,10,11,12,13,14,15,16,17-dodecahydro-3H-cyclopenta[a]phenanthren-17-yl)oxy)-9-oxononyl)phosphonic acid] | 0.1 | 65% (at | 3040 | <0.9 | >77 | 3200 | – | – |
| CCC(=O)O[C@]1(C(=O)SCCCCCCCCCCP(=O)(O)O)[C@H](C)C[C@H]2[C@@H]3C[C@H](F)C4=CC(=O)C=C[C@]4(C)[C@@]3(F)[C@@H](O)C[C@@]21C [Compound 3, (10-(((6S,8S,9R,10S,11S,13S,14S,16R,17R)-6,9-difluoro-11-hydroxy-10,13,16-trimethyl-3-oxo-17-(propionyloxy)-6,7,8,9,10,11,12,13,14,15,16,17-dodecahydro-3H-cyclopenta[a]phenanthrene-17-carbonyl)thio)decyl)phosphonic acid] | 0.44 | 71% (at | 649 | 1.04 | 75 | 1100 | – | – |
| CCC(=O)O[C@]1(C(=O)SCF)[C@H](C)C[C@H]2[C@@H]3C[C@H](F)C4=CC(=O)C=C[C@]4(C)[C@@]3(F)[C@@H](O)C[C@@]21C [Fluticasone Propionate, reference compound] | – | – | 0.2 | 21.5 | – | – | 100 | 0.019 |
